Reference: PubChem BioAssay AID1259407 (Chemical Carcinogenesis Research Information System (CCRIS), 2018)
Activity calls are given as the source filed them. How the calls were made is not given here.

Test system: CCRIS mutagenicity, Ames/micronucleus/aberration tests
Assay: CCRIS mutagenicity studies
[1] = Test System: AMES SALMONELLA TYPHIMURIUM, Strain/Indicator: TA98, Metabolic Activation: NONE, Method: PREINCUBATION
[2] = Test System: AMES SALMONELLA TYPHIMURIUM, Strain/Indicator: TA100, Metabolic Activation: NONE, Method: PREINCUBATION
[3] = Test System: AMES SALMONELLA TYPHIMURIUM, Strain/Indicator: TA98, Metabolic Activation: NONE, Method: STANDARD PLATE
[4] = Test System: AMES SALMONELLA TYPHIMURIUM, Strain/Indicator: TA100, Metabolic Activation: NONE, Method: STANDARD PLATE

`O=C(Cc1ccccc1)NC(Cc1ccc(Cl)cc1)C(=O)O` (configuration not stated) was tested, and the mutagenic call (Test System: AMES SALMONELLA TYPHIMURIUM, Strain/Indicator: TA98, Metabolic Activation: NONE) was “inactive; negative”, the mutagenic call (Test System: AMES SALMONELLA TYPHIMURIUM, Strain/Indicator: TA100, Metabolic Activation: NONE) was “active; positive” and the mutagenic call (Test System: AMES SALMONELLA TYPHIMURIUM, Strain/Indicator: TA1535, Metabolic Activation: NONE) was “inactive; negative”. The mutagenic call (Test System: AMES SALMONELLA TYPHIMURIUM, Strain/Indicator: TA1537, Metabolic Activation: NONE) was “inactive; negative” and the mutagenic call (Test System: E. COLI, Strain/Indicator: AB2462 UVRA, Metabolic Activation: NONE, Method: SPOT TEST) was “inactive; negative”.
`[Cl][Mn][Cl]` was tested, and the mutagenic call [1] was “inactive; negative”, the mutagenic call (Test System: AMES SALMONELLA TYPHIMURIUM, Strain/Indicator: TA98, Metabolic Activation: RAT LIVER S-9, PHENOBARBITAL AND BETA-NAPHTHOFLAVONE, Method: PREINCUBATION) was “inactive; negative” and the mutagenic call [2] was “inactive; negative”. The mutagenic call (Test System: AMES SALMONELLA TYPHIMURIUM, Strain/Indicator: TA100, Metabolic Activation: RAT LIVER S-9, PHENOBARBITAL AND BETA-NAPHTHOFLAVONE, Method: PREINCUBATION) was “inactive; negative”, the mutagenic call (Test System: AMES SALMONELLA TYPHIMURIUM, Strain/Indicator: TA102, Metabolic Activation: NONE, Method: STANDARD PLATE) was “active; positive” and the mutagenic call (Test System: AMES SALMONELLA TYPHIMURIUM, Strain/Indicator: TA1535, Metabolic Activation: NONE, Method: PREINCUBATION) was “inactive; negative”. For the same compound, the mutagenic call (Test System: AMES SALMONELLA TYPHIMURIUM, Strain/Indicator: TA1535, Metabolic Activation: RAT LIVER S-9, PHENOBARBITAL AND BETA-NAPHTHOFLAVONE, Method: PREINCUBATION) was “inactive; negative”, the mutagenic call (Test System: AMES SALMONELLA TYPHIMURIUM, Strain/Indicator: TA1537, Metabolic Activation: NONE, Method: PREINCUBATION) was “inactive; negative” and the mutagenic call (Test System: AMES SALMONELLA TYPHIMURIUM, Strain/Indicator: TA1537, Metabolic Activation: RAT LIVER S-9, PHENOBARBITAL AND BETA-NAPHTHOFLAVONE, Method: PREINCUBATION) was “inactive; negative”. The mutagenic call (Test System: AMES SALMONELLA TYPHIMURIUM, Strain/Indicator: TA1538, Metabolic Activation: NONE, Method: PREINCUBATION) was “inactive; negative”, the mutagenic call (Test System: AMES SALMONELLA TYPHIMURIUM, Strain/Indicator: TA1538, Metabolic Activation: RAT LIVER S-9, PHENOBARBITAL AND BETA-NAPHTHOFLAVONE, Method: PREINCUBATION) was “inactive; negative” and the mutagenic call (Test System: E. COLI, Strain/Indicator: WP2 UVRA, Metabolic Activation: NONE, Method: SPOT TEST) was “inactive; negative”. The mutagenic call (Test System: E.COLI, Strain/Indicator: WP2UVRA, Metabolic Activation: NONE, Method: PREINCUBATION) was “inactive; negative” and the mutagenic call (Test System: E.COLI, Strain/Indicator: WP2UVRA, Metabolic Activation: RAT LIVER S-9, PHENOBARBITAL AND BETA-NAPHTHOFLAVONE, Method: PREINCUBATION) was “inactive; negative”.
With `O=C1C=Cc2ccc3c4c(ccc1c24)C=CC3=O` the mutagenic call (Test System: AMES SALMONELLA TYPHIMURIUM, Strain/Indicator: TA97, Metabolic Activation: NONE, Method: STANDARD PLATE) was “active; positive”, the mutagenic call (Test System: AMES SALMONELLA TYPHIMURIUM, Strain/Indicator: TA97, Metabolic Activation: RAT, LIVER, S-9, PCB, Method: STANDARD PLATE) was “active; positive” and the mutagenic call [3] was “inactive; negative”. The mutagenic call (Test System: AMES SALMONELLA TYPHIMURIUM, Strain/Indicator: TA98, Metabolic Activation: RAT, LIVER, S-9, PCB, Method: STANDARD PLATE) was “inactive; negative”, the mutagenic call [4] was “inactive; negative” and the mutagenic call (Test System: AMES SALMONELLA TYPHIMURIUM, Strain/Indicator: TA100, Metabolic Activation: RAT, LIVER, S-9, PCB, Method: STANDARD PLATE) was “inactive; negative”.
`CSC[C@H](N)C(=O)O` was tested, and the mutagenic call [1] was “inactive; negative”, the mutagenic call (Test System: AMES SALMONELLA TYPHIMURIUM, Strain/Indicator: TA98, Metabolic Activation: RAT, LIVER OR KIDNEY, MICROSOMES, Method: PREINCUBATION) was “inactive; negative” and the mutagenic call [2] was “inactive; negative”. For the same compound, the mutagenic call (Test System: AMES SALMONELLA TYPHIMURIUM, Strain/Indicator: TA100, Metabolic Activation: RAT, LIVER OR KIDNEY, MICROSOMES, Method: PREINCUBATION) was “inactive; negative”, the mutagenic call (Test System: AMES SALMONELLA TYPHIMURIUM, Strain/Indicator: TA102, Metabolic Activation: NONE, Method: PREINCUBATION) was “inactive; negative” and the mutagenic call (Test System: AMES SALMONELLA TYPHIMURIUM, Strain/Indicator: TA102, Metabolic Activation: RAT, LIVER OR KIDNEY, MICROSOMES, Method: PREINCUBATION) was “inactive; negative”. For the same compound, the mutagenic call (Test System: AMES SALMONELLA TYPHIMURIUM, Strain/Indicator: TA2638, Metabolic Activation: NONE, Method: PREINCUBATION) was “inactive; negative” and the mutagenic call (Test System: AMES SALMONELLA TYPHIMURIUM, Strain/Indicator: TA2638, Metabolic Activation: RAT, LIVER OR KIDNEY, MICROSOMES, Method: PREINCUBATION) was “inactive; negative”.
`CC(=O)[C@@]1(C)O[C@]12C(=O)C=Cc1ccccc12` was tested, and the mutagenic call [2] was “inactive; negative”.
`CCC(C)OS(C)(=O)=O` (configuration not stated) was tested, and the mutagenic call (End Point: IN VITRO MICRONUCLEUS, Test System: MOUSE LYMPHOMA L5178Y CELLS, Metabolic Activation: NONE) was “active; positive”, the mutagenic call (End Point: IN VITRO MICRONUCLEUS, Test System: MOUSE LYMPHOMA L5178Y CELLS, Metabolic Activation: RAT, LIVER, S-9) was “active; positive” and the mutagenic call [3] was “active; positive”. The mutagenic call (Test System: AMES SALMONELLA TYPHIMURIUM, Strain/Indicator: TA98, Metabolic Activation: RAT, LIVER, S-9, Method: STANDARD PLATE) was “active; positive”, the mutagenic call [4] was “active; positive” and the mutagenic call (Test System: AMES SALMONELLA TYPHIMURIUM, Strain/Indicator: TA100, Metabolic Activation: RAT, LIVER, S-9, Method: STANDARD PLATE) was “active; positive”. For the same compound, the mutagenic call (Test System: AMES SALMONELLA TYPHIMURIUM, Strain/Indicator: TA1535, Metabolic Activation: NONE, Method: STANDARD PLATE) was “active; positive” and the mutagenic call (Test System: CHINESE HAMSTER V-79, Strain/Indicator: V-79/6-THIOGUANINE, Metabolic Activation: NONE) was “active; positive”.
